Entries after “also recorded” stand apart in the source; their conditions may differ.
Key:
Type in all cases: cell-based
PRMT5 [1] = molecular target: T1, PRMT5 (Homo sapiens, UniProt O14744); assay: Western blot of PRMT5 protein levels in multiple cell lines; design: endogenous in cells; host or cells: MCF-7; conditions: MCF-7, Hela, Jurkat, HCT116, 293T and H2171 cells, 5 μM, 6 days
Protocol: (§1) MCF-7 cells, HEK293T cells and HeLa cells were cultured in Dulbecco's Modified Eagle Medium (DMEM) supplemented with 10% fetal bovine serum (FBS) in 5% CO2 at 37° C. Jurkat cells were cultured in RPMI 1640 medium supplemented with 10% FBS in 5% CO2 at 37° C. H2171 cells were cultured in HITES medium supplemented with 10% FBS in 5% CO2 at 37° C. HCT116 were cultured in McCoy's 5A medium supplemented with 10% fetal bovine serum (FBS) in 5% CO2 at 37° C. All the cells lines were treated with 5 μM (or indicated concentration) of PRMT5 inhibitor (EPZ015666) or degraders, or equivalent volume of DMSO for 6 days (or indicated time points). Fresh compounds were constituted in medium and used for every 2 days. The antibodies used in this study are: PRMT5 antibody (Active Motif), (3-actin antibody (Sigma), SDMA antibody (collaboration with Cell Signaling Technologies). Cell cultures were harvested at the end of compound treatments and applied subjected to western blotting assay. Briefly, cells were washed with PBS and lysed with RIPA lysis buffer for 20 minutes on ice. Then lysates were centrifuged and the clear supernatant were collected. SDS loading buffer was added to the lysates and then the mixture was boiled at 100° C. for 5 minutes. Samples were loaded to 10% or 12% SDS-PAGE gel and ran at 120V for 1.5 hours. […]

PRMT5 substrates = assay: Arginine symmetric dimethylation (SDMA Western blot) in MCF-7 cells
Protocol: MCF-7 cells, HEK293T cells and HeLa cells were cultured in Dulbecco's Modified Eagle Medium (DMEM) supplemented with 10% fetal bovine serum (FBS) in 5% CO2 at 37° C. Jurkat cells were cultured in RPMI 1640 medium supplemented with 10% FBS in 5% CO2 at 37° C. H2171 cells were cultured in HITES medium supplemented with 10% FBS in 5% CO2 at 37° C. HCT116 were cultured in McCoy's 5A medium supplemented with 10% fetal bovine serum (FBS) in 5% CO2 at 37° C. All the cells lines were treated with 5 μM (or indicated concentration) of PRMT5 inhibitor (EPZ015666) or degraders, or equivalent volume of DMSO for 6 days (or indicated time points). Fresh compounds were constituted in medium and used for every 2 days. The antibodies used in this study are: PRMT5 antibody (Active Motif), (3-actin antibody (Sigma), SDMA antibody (collaboration with Cell Signaling Technologies). Cell cultures were harvested at the end of compound treatments and applied subjected to western blotting assay. Briefly, cells were washed with PBS and lysed with RIPA lysis buffer for 20 minutes on ice. Then lysates were centrifuged and the clear supernatant were collected. SDS loading buffer was added to the lysates and then the mixture was boiled at 100° C. for 5 minutes. Samples were loaded to 10% or 12% SDS-PAGE gel and ran at 120V for 1.5 hours. Then the proteins were transferred to PVDF membrane and blocked in 5% milk fat at room temperature for 1 hour. Then the membranes were incubated with indicated antibodies at 4° C. overnight. Membranes were washed with PBST buffer three times for 10 minutes each time and incubated with HRP-conjugated (horse radish peroxidase) secondary antibodies at room temperature for 1 hour. Again the membranes were washed with PBST buffer three times for 10 minutes each time. Finally, the indicated proteins on the membranes were visualized with ECL (enhanced chemiluminescence) reagents. MCF-7 cells were treated with EPZ015666 or YS43-22 at indicated compound concentrations (μM) for 6 days.

PRMT5 [2] = molecular target: T1, PRMT5; assay: Western blot of PRMT5 protein levels in H2171 cells; design: endogenous in cells; conditions: 5 μM, 6 days
Protocol: as §1

MCF-7 cells = assay: Cell proliferation assay (Cell-Titer Glo) in MCF-7 cells; conditions: 5 μM, 10 days
Protocol: The same starting number of MCF-7 cells were treated with DMSO, 5 μM EPZ015666 or YS43-22 for up to 10 days. Every two days, fresh compounds were constituted in DMEM medium and added to the cell culture. Relative cell numbers were counted every two days (i.e. day 0, 2, 4, 6, 8 and 10) using Cell-Titer Glo kit (Promega). MCF-7 cells were treated with DMSO, EPZ015666 (5 μM), or YS43-22 (5 μM) for 10 days.

T1 sequence (O14744 whole entry): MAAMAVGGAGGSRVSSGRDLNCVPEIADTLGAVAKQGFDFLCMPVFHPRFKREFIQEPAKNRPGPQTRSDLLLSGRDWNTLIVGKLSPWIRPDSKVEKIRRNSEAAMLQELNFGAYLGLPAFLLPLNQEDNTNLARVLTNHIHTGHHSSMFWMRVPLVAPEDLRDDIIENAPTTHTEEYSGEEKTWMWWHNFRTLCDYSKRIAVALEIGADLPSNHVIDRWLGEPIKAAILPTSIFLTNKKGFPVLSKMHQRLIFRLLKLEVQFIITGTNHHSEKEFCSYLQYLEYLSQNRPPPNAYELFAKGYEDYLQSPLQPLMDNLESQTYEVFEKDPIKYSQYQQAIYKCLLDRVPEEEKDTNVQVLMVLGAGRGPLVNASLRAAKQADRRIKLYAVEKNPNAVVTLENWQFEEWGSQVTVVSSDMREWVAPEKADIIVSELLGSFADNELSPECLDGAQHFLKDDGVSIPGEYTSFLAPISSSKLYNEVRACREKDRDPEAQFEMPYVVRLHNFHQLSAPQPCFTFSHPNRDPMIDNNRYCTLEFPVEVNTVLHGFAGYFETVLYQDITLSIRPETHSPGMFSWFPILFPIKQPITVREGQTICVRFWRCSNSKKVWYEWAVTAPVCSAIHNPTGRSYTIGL
T1 sequence (Q9BQA1 whole entry partner): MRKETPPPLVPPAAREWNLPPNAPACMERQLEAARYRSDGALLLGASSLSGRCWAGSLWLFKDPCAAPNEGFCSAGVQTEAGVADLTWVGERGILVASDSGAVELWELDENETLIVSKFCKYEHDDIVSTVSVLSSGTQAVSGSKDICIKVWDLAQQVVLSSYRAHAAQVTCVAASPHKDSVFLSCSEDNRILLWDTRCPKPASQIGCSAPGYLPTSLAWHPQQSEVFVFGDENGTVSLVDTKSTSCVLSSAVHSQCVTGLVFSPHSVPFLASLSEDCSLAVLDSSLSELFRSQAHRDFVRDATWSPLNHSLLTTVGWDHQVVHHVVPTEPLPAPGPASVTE

PRMT5 protein levels in different cell lines (PRMT5 [1]): significantly reduced
relative potency in down-regulation of PRMT5 protein levels (PRMT5 [1]): more potent than YS43-8
PRMT5 protein levels (PRMT5 [2]): not obviously
Structure (SMILES): Cc1ncsc1-c1ccc([C@H](C)NC(=O)[C@@H]2C[C@@H](O)CN2C(=O)[C@@H](NC(=O)COCCOCCOCCOCCOCC(=O)N2CC(Nc3cc(C(=O)NC[C@H](O)CN4CCc5ccccc5C4)ncn3)C2)C(C)(C)C)cc1 [YS43-22, N-((S)-3-(3,4-dihydroisoquinolin-2(1H)-yl)-2-hydroxypropyl)-6-((1-((S)-19-((2S,4R)-4-hydroxy-2-(((S)-1-(4-(4-methylthiazol-5-yl)phenyl)ethyl)carbamoyl)pyrrolidine-1-carbonyl)-20,20-dimethyl-17-oxo-3,6,9,12,15-pentaoxa-18-azahenicosanoyl)azetidin-3-yl)amino)pyrimidine-4-carboxamide]
suppressing PRMT5 activity (PRMT5 substrates; MCF-7 cells (Examples 90-92)): especially effective
inhibition of arginine symmetric dimethylation (PRMT5 substrates; MCF-7 cells, indicated concentrations (μM), 6 days): significantly inhibited; also recorded: significant inhibition
cell growth of MCF-7 cells (MCF-7 cells): significantly reduced; also recorded: significant potency; also recorded: significantly inhibited

Source: patent publication US20210261538A1, “PROTEIN ARGININE METHYLTRANSFERASE 5 (PRMT5) DEGRADATION / DISRUPTION COMPOUNDS AND METHODS OF USE” (ICAHN SCHOOL OF MEDICINE AT MOUNT SINAI, priority 2018, published 2021)
